Patent US4668677A, “4-phenylphthalazine derivatives, their preparation and their use as pharmaceuticals” (Mitsubishi Chemical Industries Limited, priority 1984, dated 1987)

Experiments:
[1] = tested on: femoral artery; assay: Blood pressure in femoral artery, topical cerebral blood flow test; format: in vivo, rabbit (male New Zealand White)
Description: (§1) The compound of this invention was dissolved in an aqueous solution containing 1% tartaric acid and 1% dimethylacetamide, while papaverine hydrochloride dissolved in 0.9% physiological saline. These test compounds were intravenously given through a residual polyethylene tube within femoral vein.
(§2) Physiol. Scand., 67, 1 (1966); "Kokyu to Junkan" (in Japanese), 15, 435 (1967); the Journal of the Pharmacological Society of Japan, 71, 709 (1975)]. Simultaneously, blood pressure in femoral artery was also determined. Preparation and administration of test compounds were carried out in the same manner as in the above item (6).

[2] = tested on: rabbits; assay: Anti-thrombotic activity: arachidonic acid-induced mortality in rabbits; format: in vivo, rabbit (male New Zealand White)
Description: Male ICR-JCL strain mice with an average body weight of about 25 g and male New Zealand White rabbits with an average body weight of about 3 Kg were used.
Where rabbits were used as experimental animals, a suspension of the test compound in a 1% tragacanth aqueous solution was orally administered to animals at 5 ml/Kg. Two hours after the administration, an arachidonic acid solution dissolved in a 0.1M potassium carbonate solution was injected into pinna vein at 1.4 mg/Kg.
Evaluation of activity was effected with mortality at the time when arachidonic acid given. If survived at the first administration of arachidonic acid, arachidonic acid was administered after 6 hours, 24 hours, 48 hours and 72 hours from the administration of the test compound, respectively, and mortality was determined in respective cases.

[3] = tested on: femoral artery; assay: Blood pressure in femoral artery, coronary blood flow test; format: in vivo, dog (mongrel adult dog)
Description: as §1
(§3) A mongrel adult dog was anesthetized with pentobarbital sodium and then underwent thoracotomy under artificial respiration. After cardiac membrane was removed, the origin of branches in left coronary artery was removed from its peripheral tissues and blood flow volume of coronary artery was measured via the probe for determining blood flow which was attached to said origin. Simultaneously, blood pressure in femoral artery was measured. Preparation and administration of test compounds were carried out in the same manner as in the above item (6).

[4] = tested on: Thoracic aorta; assay: Calcium antagonistic activity (relaxation of thoracic aorta); format: cell-based, rat (male Wistar strain); details: Rattus norvegicus, 10 mM CaCl2
Description: Thoracic aorta was removed from male Wistar strain rats with a body weight of 350 g to 450 g and then spiral-shaped pieces of aorta were prepared therefrom. […] Thereafter, samples were further stabilized in Krebs-Henseleit solution containing no CaCl2 over 1 hour and then in a 80 mM KCl nutritive liquid wherein NaCl was exchanged with an equimolar KCl (depolarized liquid) over a further one hour. Then, samples were washed with the depolarized liquid and loaded with a static tension of 1.0 g. When CaCl2 was added to the nutritive liquid so as to reach a final concentration of 10 mM, tension was produced in samples and, after 15-20 minutes from the addition of CaCl2, the maximum tension was obtained. At this point, test compounds were applied and relaxing activity of test compounds was evaluated. Tension was determined in equal dimension.
Relaxation rate was calculated according to the following equation: [formula] A: Maximum tension generated B: Generated tension retained after administration of test compound
All test compounds were given in the form of a solution in dimethyl sulfoxide at a dose of 0.1 ml, whereupon a final concentration of dimethyl sulfoxide itself was adjusted to 0.5 V/V %.

[5] = tested on: coronary artery; assay: Activity to increase blood flow volume in coronary artery; format: in vivo, dog (mongrel adult dog)
Description: as §1, §3

[6] = tested on: blood platelets; assay: Activity to inhibit the blood platelet adhesion (glass bead method); format: cell-based, rat (male Wistar-ST strain); details: Rattus norvegicus, read-out: Inhibitory rate of blood platelet adhesion
Description: As experimental animals, there were used male Wistar-ST strain rats of an average body weight of 250 g.
Blood samples were obained from carotid arteries by means of a cannule and immediately admixed with sodium citrate at a volume ratio of 1/10. The mixture was centrifuged at 200×g over 15 minutes to collect the supernatant (platelet-rich plasma: PRP). The PRP was then centrifuged at 2000×g over 15 minutes and the supernatant was removed to give blood platelet pellet.
To the resultant blood platelet pellet was added a 15 mM tris.HCl buffer solution with EDTA (pH 7.4) to resuspend blood platelets therein and then one applied centrifugation at 2000×g over 15 minutes and the supernatant was removed. The resultant washed blood platelets were added to a 0.3 mM tris.HCl buffer solution with CaCl2 (pH 7.4) to resuspend blood platelets therein, whereby there was prepared a blood platelet suspension adjusted to five hundred thousand platelets/μl. To 2 ml of the blood platelet suspension were added 2 μl of a methanolic solution of each test compound and incubation was effected for 15 minutes. Then blood platelet adhesion was determined according to a glass bead method by using a timing blood suction apparatus for determining the blood platelet adhesion.
The number of blood platelets was counted by means of a blood platelet counter.
Inhibitory rate of blood platelet adhesion was calculated according to the following equation: [formula] A: Blood platelet number in the blood platelet suspension passed through a control column
B: Blood platelet number in the blood platelet suspension passed through a bead-packing column

[7] = tested on: cerebral cortex; assay: Activity to increase topical cerebral blood flow, cerebral cortex (heat clearance method); format: in vivo, rabbit (male New Zealand White); details: change in blood flow expressed in terms of voltage
Description: as §1, §2

[8] = tested on: candate nucleus; assay: Activity to increase topical cerebral blood flow, candate nucleus (heat clearance method); format: in vivo, rabbit (male New Zealand White); details: change in blood flow expressed in terms of voltage
Description: as §1, §2

[9] = in vivo; details: rat, po, rats
[10] = 10 mg/Kg oral, 6 hrs. after administration, of 4 rabbits
[11] = 30 mg/Kg oral, 24 hrs. after administration, of 8 (Compound 1) or 4 rabbits
[12] = 30 mg/Kg oral, 48 hrs. after administration, of 8 (Compound 1) or 4 rabbits

CC(C)(C)CNc1nnc(-c2ccccc2)c2ccccc12 [Compound 1, 1-neopentylamino-4-phenylphthalazine]
Lowering of blood pressure in femoral artery ([1]; 0.3 mg/Kg i.v.): 18.2 ± 0.98%
Lowering of blood pressure in femoral artery ([1]; 1 mg/Kg i.v.): 30.8 ± 3.2%
Mortality (number of rabbits) ([2]; 10 mg/Kg oral, 2 hrs. after administration, of 4 rabbits): 1
Mortality (number of rabbits) [2, 10]: 2
Mortality (number of rabbits) ([2]; 10 mg/Kg oral, 24 hrs. after administration, of 4 rabbits): 1
Mortality (number of rabbits) [2, 11]: 3
Mortality (number of rabbits) [2, 12]: 1
Mortality (number of rabbits) ([2]; 30 mg/Kg oral, 72 hrs. after administration, of 8 rabbits): 4
Lowering of blood pressure in femoral artery ([3]; 0.1 mg/Kg): 17.6%
Lowering of blood pressure in femoral artery ([3]; 0.3 mg/Kg): 29.4%
inhibition at 3 µM ([4]; final concentration 3 μM): 8.5%
inhibition at 10 µM ([4]; final concentration 10 μM): 30%
Blood flow volume in coronery artery, After administration ([5]; 0.1 mg/Kg): 28.8 mL/min
Blood flow volume in coronery artery, Before administration ([5]; 0.1 mg/Kg): 18.8 mL/min
Blood flow volume in coronery artery, Increase rate ([5]; 0.1 mg/Kg): 53.2%
Blood flow volume in coronery artery, After administration ([5]; 0.3 mg/Kg): 37.5 mL/min
Blood flow volume in coronery artery, Before administration ([5]; 0.3 mg/Kg): 18.8 mL/min
Blood flow volume in coronery artery, Increase rate ([5]; 0.3 mg/Kg): 99.5%
inhibition at 300 µM ([6]; 3·10^-4 M): 50.2%
inhibition at 30 µM ([6]; 3·10^-5 M): 40.8%
inhibition at 3 µM ([6]; 3·10^-6 M): 12.5%
inhibition at 0.3 µM ([6]; 3·10^-7 M): 8.2%
Increase in topical blood flow volume, Cerebral cortex ([7]; 0.3 mg/Kg i.v.): 1.03 ± 0.12 Δ μV
Increase in topical blood flow volume, Cerebral cortex ([7]; 1 mg/Kg i.v.): 2.05 ± 0.29 Δ μV
Increase in topical blood flow volume, Candate nucleus ([8]; 0.3 mg/Kg i.v.): 0.63 ± 0.08 Δ μV
Increase in topical blood flow volume, Candate nucleus ([8]; 1 mg/Kg i.v.): 0.85 ± 0.25 Δ μV
LD50 [9]: > 8000 mg/kg

CCC(CC)Nc1nnc(-c2ccccc2)c2ccccc12 [Compound 2, 1-(1-ethylpropylamino)-4-phenylphthalazine]
Mortality (number of rabbits) ([2]; 3 mg/Kg oral, 2 hrs. after administration, of 4 rabbits): 2
Mortality (number of rabbits) ([2]; 3 mg/Kg oral, 6 hrs. after administration, of 4 rabbits): 1
Mortality (number of rabbits) ([2]; 3 mg/Kg oral, 24 hrs. after administration, of 4 rabbits): 1
Mortality (number of rabbits) [2, 10]: 4
Mortality (number of rabbits) [2, 11]: 2
Mortality (number of rabbits) [2, 12]: 2
LD50 [9]: > 8000 mg/kg
